Measured values reported in patent publication US8530380B2 (priority 1997, dated 2013).

Test system: Phytophthora infestans
Type: in vivo
Conditions: single active ingredient, 3.1 ppm in the spray liquor; tomato plants infected next day, evaluated after 6 days

| Structure (SMILES) | Efficacy in % of the untreated control |
| --- | --- |
| COCC(=O)N(c1c(C)cccc1C)C(C)C(=O)OC (centres unmarked) [Compound IV.3, metalaxyl] | 0% |
| O=C(Nc1ccccc1-c1ccc(F)cc1)c1cccnc1Cl [Compound I.1] | 0% |
